Source: patent publication US20230165251A1, “SUBSTITUTED TOLYL FUNGICIDES AND THEIR MIXTURES” (FMC Corporation, priority 2020, published 2023)
Read-outs that look alike come from different tables or passages of the source.

Tests used:
Type in all cases: in vivo
Phakopsora pachyrhizi [1] = assay: Test G: Compound 41 or 63 alone and in mixtures on soybean seedlings, Asian soybean rust, Colby synergy; conditions: for pest or weed control at 0.346 ppm: Compound 41 0.346 ppm alone; for pest or weed control at 0.764 ppm: Compound 41 0.764 ppm alone
Description: The general protocol for preparing test compositions for TEST G was as follows: Compound 41, Compound 63, N-(2,2,2-trifluoroethyl)-2-[[4-[5-(trifluoromethyl)-1,2,4-oxadiazol-3-yl]phenyl]methyl]-4-oxazolecarboxamide (b54.11a), ethyl 1-[[4-[[(1Z)-2-ethoxy-3,3,3-trifluoro-1-propen-1-yl]oxy]phenyl]methyl]-1H-pyrazole-4-carboxylate (b54.11c), ethyl 1-[[4-[[2-(trifluoromethyl)-1,3-dioxolan-2-yl]methoxy]phenyl]methyl]-1H-pyrazole-4-carboxylate (b54.11d), azoxystrobin, benzovindiflupyr, bixafen, chlorothalonil, cyproconazole, epoxiconazole, fenpropidin, fenpropimorph, fluindapyr, flutriafol, fluxapyroxad, inpyrfluxam, picoxystrobin, prothioconazole, pydiflumetofen, tebuconazole and trifloxystrobin were obtained as unformulated, technical-grade materials. Copper hydroxide and mancozeb was obtained as a formulated product marketed under the trademarks KOCIDE 3000 and MANZATE, respectively. Unformulated materials were first dissolved in acetone and then suspended at the desired concentration (in ppm) in acetone and purified water (50/50 mix by volume) containing 250 ppm of the surfactant Trem® 014 (polyhydric alcohol esters). Formulated materials were dispersed in sufficient water to give the desired concentration, and neither organic solvent nor surfactant was added to the suspension. The resulting test mixtures were then used in TEST G. The tests were run on four individual plants and the results reported as the mean average of the four plants.
The presence of a synergistic effect between two active ingredients was established with the aid of the Colby equation (see Colby, S. R. “Calculating Synergistic and Antagonistic Responses of Herbicide Combinations”, Weeds, (1967), 15, 20-22):
Using the method of Colby, the presence of a synergistic interaction between two active ingredients is established by first calculating the predicted activity, p, of the mixture based on activities of the two components applied alone. If p is lower than the experimentally established effect, synergism has occurred. In the equation above, A is the fungicidal activity in percentage control of one component applied alone at rate x. The B term is the fungicidal activity in percentage control of the second component applied at rate y. The equation estimates p, the expected fungicidal activity of the mixture of A at rate x with B at rate y if their effects are strictly additive and no interaction has occurred.
(§1) The test mixture was sprayed to the point of run-off on soybean seedlings. The following day the seedlings were inoculated with a spore suspension of Phakopsora pachyrhizi (the causal agent of Asian soybean rust) and incubated in a saturated atmosphere at 22° C. for 24 h and then moved to a growth chamber at 22° C. for 8 days, after which time visual disease ratings were made.
Results for TEST G are given below in Tables B-1 through J-1 for Compound 41, and Tables B-2 through J-2 for Compound 63. Each table corresponds to a set of evaluations performed together at the same time. In each table, a rating of 100 indicates 100% disease control and a rating of 0 indicates no disease control (relative to the controls). Columns labeled “Obsd” indicate the average of results observed from test run on four individual plants. Columns labeled “Exp” indicate the expected value for each treatment mixture using the Colby equation.

Phakopsora pachyrhizi [2] = assay: Test D: preventive spray on soybean seedlings, Asian soybean rust; conditions: Rate 10 ppm; for pest or weed control at 10 ppm: Phakopsora pachyrhizi, 216 h, read-out: Test D disease control rating
Description: (§2) General protocol for preparing test suspensions for Tests A-F: the test compounds were first dissolved in acetone in an amount equal to 3% of the final volume and then suspended at the desired concentration (in ppm) in acetone and purified water (50/50 mix by volume) containing 250 ppm of the surfactant PEG400 (polyhydric alcohol esters). The resulting test suspensions were then used in Tests A-F.
as §1, with “solution” for “mixture”
(§3) A rating of 100 indicates 100% disease control and a rating of 0 indicates no disease control (relative to the controls). A dash (-) indicates the compound was not tested.

[3] = test system: Puccinia recondita f. sp. tritici; assay: Test B: preventive spray on wheat seedlings, wheat leaf rust; conditions: Rate 10 ppm; for pest or weed control at 10 ppm: Puccinia recondita, 192 h, read-out: Test B disease control rating
Description: as §2
The test solution was sprayed to the point of run-off on wheat seedlings. The following day the seedlings were inoculated with a spore suspension of Puccinia recondita f. sp. tritici (the causal agent of wheat leaf rust) and incubated in a saturated atmosphere at 20° C. for 24 h, and then moved to a growth chamber at 20° C. for 7 days, after which time disease ratings were made.
as §3

[4] = Phakopsora pachyrhizi, Table B-1, read-out: Test G Obsd
[5] = Phakopsora pachyrhizi, Table C-1, read-out: Test G Obsd

## Cn1cc(C(=O)Nc2ccccc2-c2cc(F)c(F)c(F)c2)c(C(F)F)n1 [Fluxapyroxad, fluxapyroxad]
Phakopsora pachyrhizi [1]; Table C-1, fluxapyroxad 2.757 ppm alone
  Test G Obsd: 19%
Phakopsora pachyrhizi [1]; Table C-1, fluxapyroxad 4.748 ppm alone
  Test G Obsd: 52%
Phakopsora pachyrhizi [1]; Table C-2, fluxapyroxad 2.757 ppm alone
  Test G Obsd: 19%
Phakopsora pachyrhizi [1]; Table C-2, fluxapyroxad 4.748 ppm alone
  Test G Obsd: 52%

## Fc1ccc([C@]2(Cn3cncn3)O[C@H]2c2ccccc2Cl)cc1 (racemic) [Epoxiconazole, epoxiconazole]
Phakopsora pachyrhizi [1]; Phakopsora pachyrhizi, epoxiconazole alone 46.795 ppm, read-out: Test G Obsd
  pest or weed control at 46.795 ppm: 23%
Phakopsora pachyrhizi [1]; Phakopsora pachyrhizi, epoxiconazole alone 89.631 ppm, read-out: Test G Obsd
  pest or weed control at 89.631 ppm: 70%

## C[C@@H]1CC(C)(C)c2cccc(NC(=O)c3cn(C)nc3C(F)F)c21 [Inpyrfluxam, inpyrfluxam]
Phakopsora pachyrhizi [1]; inpyrfluxam alone 0.448 ppm
  Test G Obsd: 56%
Phakopsora pachyrhizi [1]; inpyrfluxam alone 1.059 ppm
  Test G Obsd: 79%

## CC(Cc1ccc(C(C)(C)C)cc1)CN1CCCCC1 (stereo not shown) [Fenpropidin, fenpropidin]
Phakopsora pachyrhizi [1]; Phakopsora pachyrhizi, fenpropidin alone 78.393 ppm, read-out: Test G Obsd
  pest or weed control at 78.393 ppm: 45%
Phakopsora pachyrhizi [1]; Phakopsora pachyrhizi, fenpropidin alone 161.740 ppm, read-out: Test G Obsd
  pest or weed control at 161.74 ppm: 68%

## CC(C1CC1)C(O)(Cn1cncn1)c1ccc(Cl)cc1 (stereo not shown) [Cyproconazole, cyproconazole]
Phakopsora pachyrhizi [1]; Phakopsora pachyrhizi, cyproconazole alone 37.333 ppm, read-out: Test G Obsd
  pest or weed control at 37.333 ppm: 44%
Phakopsora pachyrhizi [1]; Phakopsora pachyrhizi, cyproconazole alone 64.883 ppm, read-out: Test G Obsd
  pest or weed control at 64.883 ppm: 68%

## COC(=O)NCc1cc(-c2ccn(-c3c(F)cc(C4CC4)cc3F)n2)ccc1C [Compound 41, methyl N-[[5-[1-(4-cyclopropyl-2,6-difluorophenyl)-1H-pyrazol-3-yl]-2-methylphenyl]methyl]carbamate]
Phakopsora pachyrhizi [1]; [4]
  pest or weed control at 0.346 ppm: 29%
  pest or weed control at 0.764 ppm: 62%
Phakopsora pachyrhizi [1]; [5]
  pest or weed control at 0.346 ppm: 19%
  pest or weed control at 0.764 ppm: 45%

## Cn1cc(C(=O)Nc2ccc(F)cc2-c2ccc(Cl)c(Cl)c2)c(C(F)F)n1 [Bixafen, bixafen]
Phakopsora pachyrhizi [1]; Table C-1, bixafen 11.327 ppm alone
  Test G Obsd: 54%
Phakopsora pachyrhizi [1]; Table C-1, bixafen 19.525 ppm alone
  Test G Obsd: 55%
Phakopsora pachyrhizi [1]; Table C-2, bixafen 11.327 ppm alone
  Test G Obsd: 54%
Phakopsora pachyrhizi [1]; Table C-2, bixafen 19.525 ppm alone
  Test G Obsd: 55%

## CO/C=C(/C(=O)OC)c1ccccc1COc1cccc(C(F)(F)F)n1 [Picoxystrobin, picoxystrobin]
Phakopsora pachyrhizi [1]; picoxystrobin alone 20.596 ppm
  Test G Obsd: 63%
Phakopsora pachyrhizi [1]; picoxystrobin alone 33.856 ppm
  Test G Obsd: 79%
Phakopsora pachyrhizi [1]; picoxystrobin alone 33.865 ppm
  Test G Obsd: 79%

## CON=C(C(=O)OC)c1ccccc1CON=C(C)c1cccc(C(F)(F)F)c1 [Trifloxystrobin, trifloxystrobin]
Phakopsora pachyrhizi [1]; Phakopsora pachyrhizi, trifloxystrobin alone 20.511 ppm, read-out: Test G Obsd
  pest or weed control at 20.511 ppm: 46%
Phakopsora pachyrhizi [1]; Phakopsora pachyrhizi, trifloxystrobin alone 35.310 ppm, read-out: Test G Obsd
  pest or weed control at 35.31 ppm: 76%

## CC1CC(C)(C)c2c(F)ccc(NC(=O)c3cn(C)nc3C(F)F)c21 (stereo not shown) [Fluindapyr, fluindapyr]
Phakopsora pachyrhizi [1]; Table C-1, fluindapyr 8.820 ppm alone
  Test G Obsd: 61%
Phakopsora pachyrhizi [1]; Table C-1, fluindapyr 15.230 ppm alone
  Test G Obsd: 79%
Phakopsora pachyrhizi [1]; Table C-2, fluindapyr 8.820 ppm alone
  Test G Obsd: 61%
Phakopsora pachyrhizi [1]; Table C-2, fluindapyr 15.230 ppm alone
  Test G Obsd: 79%

## CC(Cc1ccc(C(C)(C)C)cc1)CN1C[C@@H](C)O[C@@H](C)C1 (stereo partly shown) [Fenpropimorph, fenpropimorph]
Phakopsora pachyrhizi [1]; Phakopsora pachyrhizi, fenpropimorph alone 242.823 ppm, read-out: Test G Obsd
  pest or weed control at 242.823 ppm: 33%
Phakopsora pachyrhizi [1]; Phakopsora pachyrhizi, fenpropimorph alone 458.587 ppm, read-out: Test G Obsd
  pest or weed control at 458.587 ppm: 44%

## Cn1cc(C(=O)Nc2cccc3c2[C@@H]2CC[C@H]3C2=C(Cl)Cl)c(C(F)F)n1 (racemic) [Benzovindiflupyr, benzovindiflupyr]
Phakopsora pachyrhizi [1]; benzovindiflupyr alone 0.606 ppm
  Test G Obsd: 67%
Phakopsora pachyrhizi [1]; benzovindiflupyr alone 0.980 ppm
  Test G Obsd: 67%

## N#Cc1c(Cl)c(Cl)c(Cl)c(C#N)c1Cl [Chlorothalonil, chlorothalonil]
Phakopsora pachyrhizi [1]; Phakopsora pachyrhizi, chlorothalonil alone 138.129 ppm, read-out: Test G Obsd
  pest or weed control at 138.129 ppm: 59%
Phakopsora pachyrhizi [1]; Phakopsora pachyrhizi, chlorothalonil alone 222.081 ppm, read-out: Test G Obsd
  pest or weed control at 222.081 ppm: 85%

## O=C(NCC(F)(F)F)c1coc(Cc2ccc(-c3noc(C(F)(F)F)n3)cc2)n1 [(b54.11a)]
Phakopsora pachyrhizi [1]; Table B-1, (b54.11a) 0.471 ppm alone
  Test G Obsd: 59%
Phakopsora pachyrhizi [1]; Table B-1, (b54.11a) 0.764 ppm alone
  Test G Obsd: 75%

## OC(Cn1cncn1)(c1ccc(F)cc1)c1ccccc1F (stereo not shown) [Flutriafol, flutriafol]
Phakopsora pachyrhizi [1]; Phakopsora pachyrhizi, flutriafol alone 544.265 ppm, read-out: Test G Obsd
  pest or weed control at 544.265 ppm: 13%
Phakopsora pachyrhizi [1]; Phakopsora pachyrhizi, flutriafol alone 1124.021 ppm, read-out: Test G Obsd
  pest or weed control at 1124.02 ppm: 52%

## CC(C)(C)C(O)(CCc1ccc(Cl)cc1)Cn1cncn1 (stereo not shown) [Tebuconazole, tebuconazole]
Phakopsora pachyrhizi [1]; Phakopsora pachyrhizi, tebuconazole alone 486.921 ppm, read-out: Test G Obsd
  pest or weed control at 486.921 ppm: 30%
Phakopsora pachyrhizi [1]; Phakopsora pachyrhizi, tebuconazole alone 841.166 ppm, read-out: Test G Obsd
  pest or weed control at 841.166 ppm: 55%

## CCC(C)c1cc(F)c(-n2ncc(-c3ccc(C)c(CNC(=O)OC)c3)n2)c(F)c1 (stereo not shown) [Compound 139, methyl N-[[5-[2-[2,6-difluoro-4-(1-methylpropyl)phenyl]-2H-1,2,3-triazol-4-yl]-2-methylphenyl]methyl]carbamate]
Phakopsora pachyrhizi [2]
  pest or weed control at 10 ppm: 100%
[3]
  pest or weed control at 10 ppm: 99%

## COC(=O)NNc1cc(-c2ccn(-c3c(F)cc(C(C)C)cc3F)n2)ccc1C [Compound 155]
Phakopsora pachyrhizi [2]
  pest or weed control at 10 ppm: 100%
[3]
  pest or weed control at 10 ppm: 91%

## COC(=O)NCc1cc(-c2ccn(-c3c(Br)cccc3Br)n2)ccc1C [compound 58]
Phakopsora pachyrhizi [2]
  Test D disease control rating: 100%
[3]
  Test B disease control rating: 68%

## COC(=O)NCc1cc(-c2ccn(-c3c(Cl)cccc3Cl)n2)ccc1C [compound 44]
Phakopsora pachyrhizi [2]
  Test D disease control rating: 100%
[3]
  Test B disease control rating: 68%

## COC(=O)NCc1cc(-c2ccn(-c3c(F)cccc3Br)n2)ccc1C [compound 46]
Phakopsora pachyrhizi [2]
  Test D disease control rating: 100%
[3]
  Test B disease control rating: 68%

## COC(=O)NCc1cc(-c2cn(-c3c(Cl)cc(OC)cc3OC)nn2)ccc1C [compound 120]
Phakopsora pachyrhizi [2]
  Test D disease control rating: 0%
[3]
  Test B disease control rating: 0%

## COC(=O)NCc1cc(-c2ccn(-c3c(F)cc(C4OCCCO4)cc3F)n2)ccc1C [Compound 134]
Phakopsora pachyrhizi [2]
  Test D disease control rating: 100%
[3]
  Test B disease control rating: 89%

## COC(=O)NCc1cc(-c2ccn(-c3c(F)cc(SC)cc3SC)n2)ccc1C [compound 28]
Phakopsora pachyrhizi [2]
  Test D disease control rating: 100%
[3]
  Test B disease control rating: 0%

## COC(=O)NCc1cc(-c2ccn(-c3c(Cl)cc(N)cc3Cl)n2)ccc1C [compound 55]
Phakopsora pachyrhizi [2]
  Test D disease control rating: 0%
[3]
  Test B disease control rating: 0%

## COC(=O)NCc1cc(-c2ccn(-c3c(F)cc(OCF)cc3F)n2)ccc1C [compound 73]
Phakopsora pachyrhizi [2]
  Test D disease control rating: 100%
[3]
  Test B disease control rating: 100%

## COC(=O)NCc1cc(-c2cn(-c3c(C)cc(OC)cc3C)nn2)ccc1C [compound 124]
Phakopsora pachyrhizi [2]
  Test D disease control rating: 0%
[3]
  Test B disease control rating: 0%

## COC(=O)NNc1cc(-c2ccn(-c3c(F)cc(C(F)(F)F)cc3F)n2)ccc1C [Compound 156]
Phakopsora pachyrhizi [2]
  pest or weed control at 10 ppm: 54%
[3]
  pest or weed control at 10 ppm: 85%

## COC(=O)NCc1cc(-c2ccn(-c3c(F)cc(C4(C)CC4)cc3F)n2)ccc1C [compound 74]
Phakopsora pachyrhizi [2]
  Test D disease control rating: 100%
[3]
  Test B disease control rating: 100%
